Measured values as given in PubChem BioAssay AID1259407 (Chemical Carcinogenesis Research Information System (CCRIS), 2018).
Calls of active or inactive are those of the source. The rule behind the calls is not given here.

System: CCRIS mutagenicity, Ames/micronucleus/aberration tests
Test: CCRIS mutagenicity studies
[1] = Test System: AMES SALMONELLA TYPHIMURIUM, Strain/Indicator: TA98, Metabolic Activation: NONE, Method: PREINCUBATION
[2] = Test System: AMES SALMONELLA TYPHIMURIUM, Strain/Indicator: TA98, Metabolic Activation: NONE, Method: STANDARD PLATE
[3] = Test System: AMES SALMONELLA TYPHIMURIUM, Strain/Indicator: TA100, Metabolic Activation: NONE, Method: PREINCUBATION
[4] = Test System: AMES SALMONELLA TYPHIMURIUM, Strain/Indicator: TA100, Metabolic Activation: NONE, Method: STANDARD PLATE
[5] = Test System: AMES SALMONELLA TYPHIMURIUM, Strain/Indicator: TA98, Metabolic Activation: RAT, LIVER, S-9, AROCLOR 1254, Method: STANDARD PLATE
[6] = Test System: AMES SALMONELLA TYPHIMURIUM, Strain/Indicator: TA100, Metabolic Activation: RAT, LIVER, S-9, AROCLOR 1254, Method: STANDARD PLATE
[7] = Test System: AMES SALMONELLA TYPHIMURIUM, Strain/Indicator: TA1535, Metabolic Activation: NONE, Method: STANDARD PLATE
[8] = Test System: AMES SALMONELLA TYPHIMURIUM, Strain/Indicator: TA1535, Metabolic Activation: RAT, LIVER, S-9, AROCLOR 1254, Method: STANDARD PLATE
[9] = Test System: AMES SALMONELLA TYPHIMURIUM, Strain/Indicator: TA102, Metabolic Activation: NONE, Method: PREINCUBATION

O=[N+]([O-])c1c2ccccc2cc2ccccc12
mutagenic call (Test System: AMES SALMONELLA TYPHIMURIUM, Strain/Indicator: TA98, Metabolic Activation: HAMSTER, LIVER, S-9, AROCLOR 1254 (30%), Method: PREINCUBATION): active; positive
mutagenic call [1]: active; positive
mutagenic call [2]: active; positive
mutagenic call (Test System: AMES SALMONELLA TYPHIMURIUM, Strain/Indicator: TA98, Metabolic Activation: RAT, LIVER, S-9, AROCLOR 1254 (10%), Method: PREINCUBATION): active; positive
mutagenic call (Test System: AMES SALMONELLA TYPHIMURIUM, Strain/Indicator: TA98, Metabolic Activation: RAT, LIVER, S-9, AROCLOR 1254 (30%), Method: PREINCUBATION): active; positive
mutagenic call (Test System: AMES SALMONELLA TYPHIMURIUM, Strain/Indicator: TA98, Metabolic Activation: RAT, LIVER, S-9, Method: STANDARD PLATE): active; positive
mutagenic call (Test System: AMES SALMONELLA TYPHIMURIUM, Strain/Indicator: TA100, Metabolic Activation: HAMSTER, LIVER, S-9, AROCLOR 1254 (30%), Method: PREINCUBATION): active; positive
mutagenic call [3]: active; positive
mutagenic call [4]: inactive; negative
mutagenic call (Test System: AMES SALMONELLA TYPHIMURIUM, Strain/Indicator: TA100, Metabolic Activation: RAT, LIVER, S-9, AROCLOR 1254 (10%), Method: PREINCUBATION): active; positive
mutagenic call (Test System: AMES SALMONELLA TYPHIMURIUM, Strain/Indicator: TA100, Metabolic Activation: RAT, LIVER, S-9, AROCLOR 1254 (30%), Method: PREINCUBATION): active; positive
mutagenic call (Test System: AMES SALMONELLA TYPHIMURIUM, Strain/Indicator: TA100, Metabolic Activation: RAT, LIVER, S-9, Method: STANDARD PLATE): inactive; negative

CC(=O)N[C@@H](CS/C(Cl)=C/Cl)C(=O)O
mutagenic call (Test System: AMES SALMONELLA TYPHIMURIUM, Strain/Indicator: TA2638, Metabolic Activation: NONE, Method: PREINCUBATION): active; positive
mutagenic call (Test System: AMES SALMONELLA TYPHIMURIUM, Strain/Indicator: TA2638, Metabolic Activation: RAT, KIDNEY, CYTOSOL, Method: PREINCUBATION): active; positive

COc1cccc2c1C(=O)c1c(O)c3c(c(O)c1C2=O)C[C@@](O)(C(=O)CO)C[C@@H]3O
mutagenic call [2]: active; positive
mutagenic call [5]: active; positive
mutagenic call [4]: active; positive
mutagenic call (Test System: AMES SALMONELLA TYPHIMURIUM, Strain/Indicator: TA1538, Metabolic Activation: NONE, Method: STANDARD PLATE): active; positive

CN(C(=O)c1csc([N+](=O)[O-])c1)c1ccccc1
mutagenic call [2]: active; positive
mutagenic call [4]: active; positive

NC(=O)NO
mutagenic call (End Point: IN VITRO MICRONUCLEUS, Test System: CHINESE HAMSTER V79 CELLS, Metabolic Activation: NONE): active; positive; effect greater at 16 hr exposure
mutagenic call (End Point: IN VITRO MICRONUCLEUS, Test System: CHO CELLS, Metabolic Activation: RAT, LIVER, S-9, AROCLOR 1254): active; positive
mutagenic call (End Point: In vitro micronucleus, Test System: Human lymphoblastoid TK6 cells, Metabolic Activation: None): active; positive (p<0.001)
mutagenic call (Test System: AMES SALMONELLA TYPHIMURIUM, Strain/Indicator: TA97, Metabolic Activation: NONE, Method: STANDARD PLATE): active; positive
mutagenic call (Test System: AMES SALMONELLA TYPHIMURIUM, Strain/Indicator: TA97, Metabolic Activation: RAT, LIVER, S-9, AROCLOR 1254, Method: STANDARD PLATE): active; positive
mutagenic call [5]: active; positive
mutagenic call [6]: active; positive
mutagenic call (Test System: AMES SALMONELLA TYPHIMURIUM, Strain/Indicator: TA102, Metabolic Activation: RAT, LIVER, S-9, AROCLOR 1254, Method: STANDARD PLATE): active; positive
mutagenic call [7]: inactive; negative
mutagenic call [8]: inactive; negative
mutagenic call (Test System: AMES SALMONELLA TYPHIMURIUM, Strain/Indicator: TA1537, Metabolic Activation: NONE, Method: STANDARD PLATE): inactive; negative
mutagenic call (Test System: E. COLI, Strain/Indicator: WP2 (HCR), Metabolic Activation: NONE, Method: STANDARD PLATE): inactive; negative
mutagenic call (Test System: MOUSE LYMPHOMA, Strain/Indicator: L5178Y (TK+/TK-), Metabolic Activation: NONE, Method: MICROWELL): active; positive
mutagenic call (Test System: MOUSE LYMPHOMA, Strain/Indicator: L5178Y (TK+/TK-), Metabolic Activation: NONE, Method: SUSPENSION/PLATE): active; positive
mutagenic call (Test System: MOUSE LYMPHOMA, Strain/Indicator: L5178Y (TK+/TK-), Metabolic Activation: S-9, Method: MICROWELL): active; positive
mutagenic call (Test System: UDS RODENT HEPATOCYTES, Strain/Indicator: THY INCORP (NON-S-PHASE), Metabolic Activation: NONE, Method: AUTORADIOGRAPHY): active; positive

CCCCCC[C@H](C/C=C\CCCCCCCC(=O)OC)OC(C)=O
mutagenic call (Test System: AMES SALMONELLA TYPHIMURIUM, Strain/Indicator: TA97, Metabolic Activation: NONE, Method: PREINCUBATION): inactive; negative
mutagenic call (Test System: AMES SALMONELLA TYPHIMURIUM, Strain/Indicator: TA97, Metabolic Activation: RAT, LIVER, S-9, AROCLOR 1254, Method: PREINCUBATION): inactive; negative
mutagenic call [9]: inactive; negative
mutagenic call (Test System: AMES SALMONELLA TYPHIMURIUM, Strain/Indicator: TA102, Metabolic Activation: RAT, LIVER, S-9, AROCLOR 1254, Method: PREINCUBATION): inactive; negative

CSCCCCN=C=S
mutagenic call (End Point: IN VITRO MICRONUCLEUS, Test System: HUMAN T-LYMPHOCYTES, Metabolic Activation: NONE): inactive; negative

CC(Cl)CCl (configuration not stated)
mutagenic call (End Point: IN VITRO CHROMOSOMAL ABERRATIONS, Test System: CHINESE HAMSTER OVARY CELLS, Metabolic Activation: RAT, LIVER, S-9, AROCLOR 1254): active; positive
mutagenic call [1]: inactive; negative
mutagenic call (Test System: AMES SALMONELLA TYPHIMURIUM, Strain/Indicator: TA98, Metabolic Activation: RAT LIVER S-9, PHENOBARBITAL AND BETA-NAPHTHOFLAVONE, Method: PREINCUBATION): inactive; negative
mutagenic call [3]: inactive; negative
mutagenic call [4]: active; positive
mutagenic call (Test System: AMES SALMONELLA TYPHIMURIUM, Strain/Indicator: TA100, Metabolic Activation: RAT LIVER S-9, PHENOBARBITAL AND BETA-NAPHTHOFLAVONE, Method: PREINCUBATION): inactive; negative
mutagenic call [6]: active; positive
mutagenic call [9]: inactive; negative
mutagenic call (Test System: AMES SALMONELLA TYPHIMURIUM, Strain/Indicator: TA102, Metabolic Activation: RAT LIVER S-9, PHENOBARBITAL AND BETA-NAPHTHOFLAVONE, Method: PREINCUBATION): inactive; negative
mutagenic call (Test System: AMES SALMONELLA TYPHIMURIUM, Strain/Indicator: TA104, Metabolic Activation: NONE, Method: PREINCUBATION): inactive; negative
mutagenic call (Test System: AMES SALMONELLA TYPHIMURIUM, Strain/Indicator: TA104, Metabolic Activation: RAT LIVER S-9, PHENOBARBITAL AND BETA-NAPHTHOFLAVONE, Method: PREINCUBATION): inactive; negative
mutagenic call (Test System: AMES SALMONELLA TYPHIMURIUM, Strain/Indicator: TA1535, Metabolic Activation: NONE, Method: PREINCUBATION): inactive; negative
mutagenic call [7]: active; positive
mutagenic call (Test System: AMES SALMONELLA TYPHIMURIUM, Strain/Indicator: TA1535, Metabolic Activation: RAT LIVER S-9, PHENOBARBITAL AND BETA-NAPHTHOFLAVONE, Method: PREINCUBATION): inactive; negative
mutagenic call [8]: active; positive
mutagenic call (Test System: AMES SALMONELLA TYPHIMURIUM, Strain/Indicator: TA1537, Metabolic Activation: NONE, Method: PREINCUBATION): inactive; negative
mutagenic call (Test System: AMES SALMONELLA TYPHIMURIUM, Strain/Indicator: TA1537, Metabolic Activation: RAT LIVER S-9, PHENOBARBITAL AND BETA-NAPHTHOFLAVONE, Method: PREINCUBATION): inactive; negative
mutagenic call (Test System: E.COLI, Strain/Indicator: WP2UVRA/PKM101, Metabolic Activation: NONE, Method: PREINCUBATION): inactive; negative
mutagenic call (Test System: E.COLI, Strain/Indicator: WP2UVRA/PKM101, Metabolic Activation: RAT LIVER S-9, PHENOBARBITAL AND BETA-NAPHTHOFLAVONE, Method: PREINCUBATION): inactive; negative
mutagenic call (Test System: E.COLI, Strain/Indicator: WP2UVRA, Metabolic Activation: NONE, Method: PREINCUBATION): inactive; negative
mutagenic call (Test System: E.COLI, Strain/Indicator: WP2UVRA, Metabolic Activation: RAT LIVER S-9, PHENOBARBITAL AND BETA-NAPHTHOFLAVONE, Method: PREINCUBATION): inactive; negative
